What was measured:
[1] = tested on: Escherichia coli R45; experiment: Bacterial overlay assay: binding of 35S-labelled E. coli R45 to glycolipids separated on HPTLC; conditions: for binding of E. coli R45 to glycolipid standards: GSL standards separated on HPTLC plates; for reaction of E. coli R45 with SGG and DSGG standards (FIG. 1A): standards run beside vaginal epithelial cell gangliosides, autoradiogram
Protocol: E. coli R45 was isolated from a person with cystitis which had the pap family genotype, expressing both the P and F adhesins (Stapleton, A. et al., J. Infect Dis., 163:773-779, 1989). Organisms were kept frozen in 50% glycerol/50% Luria broth (Maniatis, T. et al., Molecular Cloning: A Laboratory Manual, 1982) at −70° C. until the night before use, when they were streaked onto Luria agar plates (Maniatis, T. et al., Molecular Cloning: A Laboratory Manual, 1982) to promote fimbrial expression and grown overnight at 37° C. On the day of use, bacteria were scraped from the plate, resuspended in M9 medium (Maniatis, T. et al., Molecular Cloning: A Laboratory Manual, 1982) without amino acids, and shaken at 37° C. for 40 minutes to deplete cellular methionine stores. ^35S-methionine (Trans^35S-label, 1137 Ci/mmol, ICN Biochemicals, Irvine, California) was then added at 200 μCi per 10^10 organisms. The cells were shaken for one hour, washed three times in PBS and resuspended in PBS (pH 7.3), and counted in a scintillation counter to give a final activity of approximately 0.01 to 0.02 cpm/organism.
(§1) Glycolipids (10 to 40 μg/lane) were chromatographed on glass HPTLC plates (Whatman) in CMW (50:40:10 by volume) with 0.05% CaCl2 with one plate run in parallel for orcinol staining. Plates were dried, dipped for 1 minute in diethyl ether containing 0.5% polyisobutylmethacrylate, dried, and preincubated in 1% bovine serum albumin (BSA)/PBS for one hour, then washed three times in PBS. Radiolabelled bacteria were overlaid (10^8 cpm total per plate) and the plates were gently rocked for one hour, washed four times in PBS and subjected to autoradiography.
The binding of metabolically radiolabelled E. coli strain R45 to glycolipid standards separated on HPTLC plates was determined using a broad panel of GSLs with varying carbohydrate moieties, as shown in Table 2.
Subsequent experiments were conducted to identify the unique E. coli-binding GSL band detected in nonsecretors' vaginal epithelial cells. Total upper neutral GSLs and total upper gangliosides were extracted from vaginal epithelial cells pooled in equal quantities from 5 nonsecretors and 9 secretors and reacted with radiolabelled E. coli R45.
Lane 1 contains ceramide trihexoasyl and globoside standards; Lane 2 contains total lower phase GSLs from the nonsecretors; Lane 3 contains total lower phase GSLs from the secretors; Lane 4 contains the Forssman antigen standard; Lanes 5 and 6 contain total upper neutral GSLs from nonsecretors and secretors, respectively; Lanes 7 and 10 contain gal-globoside, sialosyl gal-globoside, and disialosyl gal-globoside standards; Lanes 8 and 9 contain total upper phase gangliosides from nonsecretors and secretors, respectively.

[2] = tested on: MAb ID4 (directed against SGG); experiment: Radioimmunoassay of GSLs immobilized in microtiter wells with MAb ID4; type: binding; conditions: standards from human pancreas, bovine brain (GD1a), human placenta (disialosyl I)
Protocol: Radioimmunoassays of GSLs immobilized in microtiter wells were performed according to the method of Karlsson (Karlsson, K.-A. et al., Methods Enzymol., 138:220-232, 1987).
The SGG and DSGG bands from the nonsecretors' vaginal epithelial cell extracts were then reacted with ID4 in a radioimmunoassay, shown in FIG. 3.
In FIG. 3, the dotted line indicates sialosyl gal-globoside (SGG) standard from human pancreas; the solid line indicates the band co-migrating with SGG eluted from TLC of nonsecretors' extracted vaginal epithelial cells; the dashed line indicates eluted band co-migrating with DSGG from nonsecretors and the following GSL standards: gal-globoside and DSGG from human pancreas, GD1a from bovine brain, and disialosyl I from human placenta.

[3] = tested on: E. coli isolates R45, IA2, JJ122, pDC1 and pJFK102; experiment: Bacterial overlay assay: binding of five 35S-labelled E. coli UTI isolates to serially diluted globo-series GSLs, radioactivity counted; design: species or system Escherichia coli; conditions: all five isolates; GSL serially diluted from 300 ng to 18.25 ng on HPTLC
Protocol: as §1
Five isolates of E. coli were isolated from patients with UTI, R45 (wild-type cystitis isolate expressing class II pap adhesin), IA2 (wild-type isolate expressing class II pap adhesin), JJ122 (expresses class I pap adhesin), pDC1 (a subclone of IA2, expresses class II pap adhesin) and pJFK102 (expresses class III pap adhesin). The five strains were labelled metabolically with ^35S and exposed to various glycosphingolipids (GSL) separated by HPTLC in the bacterial overlay assay described hereinabove. The amount of radioactivity in the area of each GSL was counted. Controls included HB101.
The GSL's tested were CTH (globotriaosylceramide, isolated from human red blood cells), globoside (also isolated from human erythrocytes), SGG (isolated from vaginal epithelial cells or human kidney), CMH (ceramide monohexoside isolated from adenocarcinoma of colon, negative control) and DSGG (isolated from the same sources as SGG). The GSL's were serially diluted beginning with 300 ng and ending at 18.25 ng.

Substance | binding of E. coli R45 to glycolipid standards [1] | reaction of antibody ID4 with GSL standards (FIG. 3) [2] | level of binding of the E. coli isolates to the GSL [3] | reaction of E. coli R45 with SGG and DSGG standards (FIG. 1A) [1]
(Fucα1-2)Galβ1-3 GalNAcβ1-3 Galα1-4 Galβ1-4 Glcβ1-1cer [Globo H] | bound |  |  | 
GD1a |  | did not bind |  | 
GalNAcα1-3 (Fucα1-2)Galβ1-3 GalNacβ1-3 Galα1-4 Galβ1-4 Glcβ1-1cer [Globo A] | bound |  |  | 
GalNAcα1-3 Galβ1-3 GalNAcβ1-3 Galα1-4 Galβ1-4 Glcβ1-1cer [Forssman] | bound |  |  | 
GalNAcβ1-3 Galα1-4 Galβ1-4 Glcβ1-1cer [Globoside] | bound |  | lower than to DSGG | 
Galα1-4 Galβ1-4 Glcβ1-1cer [CTH] |  |  | lower than to DSGG | 
Galβ1-3 GalNAcβ1-3 Galα1-4 Galβ1-4 Glcβ1-1cer [Gal-globoside] | bound | did not bind |  | 
NeuAcα2-3 (NeuAcα2-6)Galβ1-3 GalNAcβ1-3 Galα1-4 Galβ1-4 Glcβ1-1cer [DSGG] |  | did not bind |  | reacted
NeuAcα2-3 Galβ1-3 GalNAcβ1-3 Galα1-4 Galβ1-4 Glcβ1-1ce [SGG] |  | reacted | highest binding | reacted

From US6432681B1, “Compositions for treating Escherichia coli urinary tract infections” (The Regents of the University of Washington, priority 1992, dated 2002)
